Paper PMC10298051, “Hyperoside as a UV Photoprotective or Photostimulating Compound—Evaluation of the Effect of UV Radiation with Selected UV-Absorbing Organic Compounds on Skin Cells” (International Journal of Molecular Sciences, 2023)

Columns and labels:
[1] = Cytotoxicity (MTT) of UV-absorbing compounds in HaCaT culture without irradiation; assay type: cell-based, human; conditions: human, HaCaT keratinocytes, MTT, no irradiation, mean of 3 measurements
Protocol: (§1) The immortalized human keratinocytes HaCaT and reconstituted three-dimensional human epidermis model (EpiDerm, MatTek Europe, SVK) were grown in high-glucose DMEM (Sigma-Aldrich, Burlington, MA, USA) supplemented with sodium bicarbonate (3.7 g/L, Sigma-Aldrich, Burlington, MA, USA), fetal bovine serum (10% v/v, Biowest, France), and penicillin and streptomycin (100 U/mL and 100 μg/mL, respectively, Sigma-Aldrich, Burlington, MA, USA) in darkness under a humidified atmosphere with 5% CO2 at 37 °C. For all experiments, HaCaT was dissociated using TrypLE Express (Gibco by Thermo Fisher Scientific, Waltham, MA, USA) and transferred into 12-well plates at a total number of 1 × 10^5 cells and cultivated for 24 h. The UV sources with relatively homogeneous irradiance were made from commercially available phototherapeutic UV tubes [13]. […] The irradiance values were 6.8 ± 0.4 mW/cm^2 for the UVA source and 3.5 ± 0.4 mW/cm^2 for the UVB source.
(§2) HaCaT cells and Epiderm were incubated for 18 h in DMEM supplemented with UV-absorbing compounds. Irradiation of the culture cells was performed in 0.6 mL/well phosphate-buffered saline (PBS) supplemented with 5 mM glucose (PBS-G) in 12-well plates. In the case of the 3D epidermal models, for irradiation, 3 inserts were always placed in one well of a 6-well plate filled with 0.9 mL of PBS-G; otherwise, they were kept separately in a 24-well plate with 0.3 mL of DMEM per well. After irradiation, PBS was replaced with fresh DMEM and the plates with cells were placed in a CO2 incubator for 18 h. The MTT assay was initiated by adding 5 mg/mL of methylthiazol tetrazolium bromide (MTT, Sigma-Aldrich) to DMEM, resulting in a 10-fold lower concentration of MTT in each well. After 3 h, the medium was completely removed and the formazan crystals produced by the cells were dissolved in 0.6 mL of DMSO for cell cultures or in 2 mL of isopropanol for epidermal models. The absorbance of these solutions was spectroscopically measured at 570 nm.

[2] = system: HaCaT cells; experiment: Mitochondrial membrane potential (JC-1) in pre-treated HaCaT cells after UVA or UVB; assay type: cell-based, human; conditions: JC-1, concentration-dependent, UVA 24 J/cm^2 or UVB 1.2 J/cm^2
Protocol: The mitochondrial membrane potential in HaCaT cells was estimated using the fluorescent probe 5,5′,6,6′-tetrachloro-1,1′,3,3′ tetraethylbenzimidazolylcarbocyanine chloride (JC-1, Biotium, Fremont, CA, USA). After UV irradiation in PBS-G, JC-1 was added to the cells at the final assay concentration of 2 μg/mL and the cells were allowed to incubate for 20 min. Then, the fluorescence emission intensity was measured using a Tecan Infinite 200pro fluorescence reader at excitation and emission wavelengths of 490 nm and 590 nm, respectively.

[3] = system: HaCaT cells; experiment: Comet assay of DNA fragmentation in pre-treated HaCaT cells after UVA or UVB; assay type: cell-based, human; conditions: UVA 90 min 36 J/cm^2, HMBP 30 μM, 4-MBC 10 μM, t-UCA 300 μM, Ast 100 μM, Hyp 300 μM
Protocol: DNA damage caused by UVA or UVB radiation to the HaCaT cells pre-treated with UV-absorbing compounds was investigated by a comet assay. The growth medium was replaced by PBS-G and the cells were irradiated by means of the UVA or UVB sources for 90 or 8 min, respectively. After irradiation, PBS-G medium was replaced with DMEM and the cells were allowed to culture for 24 h. The Comet assay was performed as previously described by Manisova and her co-workers. The samples were finally stained by SYBR Green (Invitrogen, Thermo Fisher Scientific, Waltham, MA, USA) and manually scored using an Olympus IX 70 inverted fluorescence microscope with a CCD camera (Olympus, JPN) and CometScore 2.0 software (TriTek, Wilmington, DE, USA). Approximately 100 cells were randomly selected from each sample to assess DNA damage. The amount of DNA in the head (corresponding to low fragmentation) was evaluated.

[4] = system: HaCaT cells; experiment: Intracellular ROS production (CM-H2DCFDA) in pre-treated HaCaT cells after UVA or UVB; assay type: cell-based, human; conditions: for ROS production during UVA exposure: UVA 60 min 24 J/cm^2
Protocol: The production of the intracellular ROS induced by UVA or UVB after 18 h of incubation with UV-absorbing compounds was analyzed using the fluorescence probe 5-(and-6)-chloromethyl-2′,7′-dichlorodihydrofluorescein diacetate (CM-H2DCFDA, Invitrogen by Thermo Fisher Scientific, Waltham, MA, USA). The HaCaT cells were incubated in PBS-G buffer supplemented with 10 μM CM-H2DCFDA for 20 min and then, after washing twice in PBS-G, exposed to UVA or UVB radiation for 60 or 3 min. After irradiation, the fluorescence of CM-DCF was recorded using a Tecan Infinite 200 pro fluorescence reader (Tecan, Männedorf, Switzerland) at excitation and emission wavelengths 490 nm and 525 nm, respectively.

[5] = system: HaCaT cells; experiment: Cytotoxicity (MTT) of UV-absorbing compounds in HaCaT culture without irradiation; assay type: cell-based, human; conditions: for cell viability (not reduced below): at 300 μM
Protocol: as §1, §2

[6] = system: HaCaT cells; experiment: Phototoxicity test: MTT viability of pre-treated HaCaT cells after UVA or UVB exposure; assay type: cell-based, human; conditions: 18 h pre-incubation; for change in cell viability after UVA: UVA 60 min 24 J/cm^2, vs irradiated sample without compound
Protocol: In the next study, HaCaT cells were incubated with two apparently non-toxic concentrations of these UV-absorbing compounds for 18 h and then their effect on the viability of HaCaT cells exposed to UVA (for 60 min at a dose of 24 J/cm^2) and UVB radiation for 3 min (at a dose of 0.6 J/cm^2) was monitored.
as §1, §2

[7] = system: epidermis model EpiDerm; experiment: MTT viability of pre-treated 3D epidermis model EpiDerm after UVA or UVB exposure; assay type: cell-based, human; conditions: 30 μM hyperoside or 100 μM trans-urocanic acid; 18 h or 42 h pre-incubation; UVA 24 or 36 J/cm^2
Protocol: Control samples without the presence of the compounds are marked as C. Each value represents mean ± S.E. from 3 measurements. * Significant difference compared to the sample without UV-absorbing compound (p < 0.05).
as §1
[…] The absorbance of these solutions was spectroscopically measured at 570 nm. The relative number of viable (oxidoreductase active) cells in the treated and untreated samples (controls) was expressed as a percentage.

[8] = system: HaCaT cells; experiment: Atomic force microscopy of HaCaT cell morphology after UV irradiation; assay type: cell-based, human; conditions: 50 µM for 4 h
Protocol: The size of HaCaT cells acquired by an atomic force microscope was calculated from 20 cells in an average using the NanoScope Analysis software. Cell diameter was measured along the longest part of the cell. Cells were first incubated with 50 µM hyperoside for 4 h and then irradiated with UVA radiation. […] Irradiating the cells by UV led to cluster disruption and changes in shape. It caused cell swelling, resulting in a decrease in the diameter (19.16 μm for UVA; 23.13 μm for UVB), an increase in the height (4.24 μm for UVA; 3.44 μm for UVB), and an overall elliptic shape compared to control cells (Figure 9). However, the pre-treatment of the cells with hyperoside prevented cells from those UVA-induced morphological changes. After the irradiation, the cells still formed clusters and there were no significant changes in the median of the diameter (29.87 μm) and median of the height (2.24 μm).
HaCaT cells were seeded in Petri dishes (Willco, NLD) containing 2 mL of DMEM. The following day, the cells were exposed to UVA for 90 min and UVB for 20 min. Some cells were pre-incubated with 50 μM hyperoside for 4 h. Before irradiation, the growth medium was replaced with fresh DMEM. Immediately after irradiation, AFM measurements were performed using a Bioscope Catalyst atomic force microscope (Bruker, Billerica, MA, USA). The size of the cell scan was 100 × 100 μm and the scan rate was 0.2–0.3 Hz. […]

[9] = system: A549 (lung adenocarcinoma); parameters: method as in PMID 31881478; conditions: A549, 24 h; read-out: concentration that halved cell viability; cited from earlier work
[10] = system: H1975 (non-small cell lung cancer); conditions: H1975, 24 h; read-out: concentration that halved cell viability; cited from earlier work
[11] = system: PANC-1 (pancreatic cancer); parameters: method as in PMID 26676634; conditions: PANC-1, 24 h; read-out: concentration that halved cell viability; cited from earlier work
[12] = 100 μM, UVB 3 min 0.6 J/cm^2, vs irradiated sample without compound

## O=C(c1ccccc1)c1ccc(O)cc1O [2,4-dihydroxybenzophenone]
[1]
  IC50 at 18 h: 85 µM
[2]
  change in mitochondrial membrane potential after UV: higher values of the mitochondrial membrane potential

## COc1ccc(C(=O)c2ccccc2)c(O)c1 [2-hydroxy-4-methoxybenzophenone]
[1]
  IC50 at 18 h: 56 µM
[2]
  change in mitochondrial membrane potential after UV: higher values of the mitochondrial membrane potential
[3]
  DNA fragmentation after UVA (percentage of DNA in comet heads): reduction in DNA fragmentation

## Cc1ccc(C=C2C(=O)C3(C)CCC2C3(C)C)cc1 (stereo not shown) [3-(4-methylbenzylidene)camphor]
[1]
  IC50 at 18 h: 28 µM
[4]; 3 and 10 μM
  ROS production during UVA exposure: statistically significant decrease in ROS production
[3]
  DNA fragmentation after UVA (percentage of DNA in comet heads): reduction in DNA fragmentation

## O=c1c(O[C@@H]2O[C@H](CO)[C@@H](O)[C@H](O)[C@H]2O)c(-c2ccc(O)cc2)oc2cc(O)cc(O)c12 [astragalin]
[1]
  IC50 at 18 h: 78 µM
[3]
  DNA fragmentation after UVA (percentage of DNA in comet heads): reduction in DNA fragmentation

## CC1=C(/C=C/C(C)=C/C=C/C(C)=C/C=C/C=C(C)/C=C/C=C(C)/C=C/C2=C(C)CCCC2(C)C)C(C)(C)CCC1 [beta-carotene]
[1]
  IC50 at 18 h: 7.3 µM
[2]
  change in mitochondrial membrane potential after UV: higher values of the mitochondrial membrane potential

## O=c1c(O[C@@H]2O[C@H](CO)[C@H](O)[C@H](O)[C@H]2O)c(-c2ccc(O)c(O)c2)oc2cc(O)cc(O)c12 [hyperoside]
[1]
  IC50 at 18 h: > 300 µM
[5]
  cell viability (not reduced below): ≥ 60%
[6]; 100 μM
  change in cell viability after UVA: also observed for UVA radiation, although to a lesser extent
[6]; [12]
  change in cell viability after UVB: statistically significant increase in cell viability
[7]
  change in viability of EpiDerm after UVA irradiation: significantly increased its viability
[4]; 100 μM
  ROS production during UVA exposure: statistically significant decrease in ROS production
[4]; 30 and 100 μM, UVB 3 min 0.6 J/cm^2
  ROS induced by UVB irradiation: effective in reducing ROS
[2]
  change in mitochondrial membrane potential after UV: opposite effect
[3]
  DNA fragmentation after UVA (percentage of DNA in comet heads): reduction in DNA fragmentation
[8]; then UVA 36 J/cm^2, untreated control 2.02 μm, UVA alone 4.24 μm
  median of the cell height after UVA: 2.24 μm
[8]; then UVA 36 J/cm^2, untreated control 31.21 μm, UVA alone 19.16 μm
  median of the cell diameter after UVA: 29.87 μm
[9]
  IC50: ~400 µM
[10]
  IC50: ~100 µM
[11]
  IC50: ~550 µM

## COc1cc(O)c2c(=O)c(OC)c(-c3ccc(O)c(OC)c3)oc2c1 [pachypodol]
[1]
  IC50 at 18 h: 5.1 µM
[5]; at 10 μM
  reduction in cell viability: > 50%
[6]; apparently non-toxic concentrations, UVB 0.6 J/cm^2
  change in cell viability after UVB: cell viability decreased significantly

## O=C(O)/C=C/c1c[nH]cn1 [trans-urocanic acid]
[1]
  IC50 at 18 h: 1100 µM
[5]
  cell viability (not reduced below): ≥ 60%
[6]; 100 μM
  change in cell viability after UVA: only linked with UVB radiation
[6]; [12]
  change in cell viability after UVB: statistically significant increase in cell viability
[7]
  change in viability of EpiDerm after UVA irradiation: no similar effect was observed
